Values after ≈ are worked out from the molar mass of the structure shown.
Legend:
[1] = test system: herpes simplex virus type 2 (HSV-2); test: HSV-2 plaque-reduction on mouse embryo fibroblast monolayers; format: cell-based; details: concentration which inhibited the number of plaques by 50%, interpolated, HSV-2 (Curtis strain), ~80 pfu, 2 days at 37° C.; for IC50: Human alphaherpesvirus 2, Fibroblast, 48 h, read-out: MIC
Protocol: The activity of the compounds of the invention against herpes simplex virus type 2 (HSV-2) was determined by measuring plaque-reduction activity on mouse embryo fibroblast monolayers. Two-day-old monolayers of Balb/c or ICR mouse embryo fibroblasts (MEF) were infected with approximately 80 pfu (plaque forming units) of HSV-2 (Curtis strain) in the presence of various concentrations of the test compounds. After a 1 hour absorption period at 37° C. and 2% CO2, the inoculum was removed and an overlay containing equal parts of 2X MS medium supplemented with 10% fetal calf serum (FSC) and 1% molten Seakem agarose was added to cell monolayers. Both the inocula and the overlay mixtures contained 1:200 dilutions of the test compound made from stock dilutions in dimethylsulfoxide. After incubation at 37° C. and 2% CO2 for 2 days, the monolayers were fixed with 5% glutaraldehyde and stained with 0.25% aqueous crystal violet. The plaques were quantitated by visual inspection. The minimum inhibitory concentration (MIC) for a compound was defined as the concentration in micrograms per milliliter (μg/ml) which inhibited the number of plaques by 50%. The MIC was calculated by interpolation.

[2] = test system: phenylephrine-contracted aortic ring preparation; test: vasodilator activity in phenylephrine-contracted aortic ring preparation from the spontaneously hypertensive rat (SHR); details: 50% of maximal relaxation induced by papaverine (200 μM), contracted with 1 μM phenylephrine
Protocol: Aortic ring preparations from SHR are suspended in buffered physiological saline and induced to contract by addition of 1 μM phenylephrine, a selective α1 -adrenergic agonist. When a sustained contraction is obtained, the test compound is added cumulatively in ascending concentrations beginning at 1 μM. At the end of the addition of the test compound, a 200 μM concentration of papaverine is added to the organ bath for induction of a 100% vasodilator response. Percent relaxation by the test compound is expressed as a percent of maximal relaxation induced by papaverine. […] By this procedure, EC50 values for certain compounds of the invention were determined with the following results: […]

EC50 [2] | Compound | MIC [1] | IC50 [1]
– | 7-Methoxy-1-methyl-1H-pyrazolo[3,4-b]quinoline-3-methanamine [Example 34] | 15 µg/mL | –
31 µM | COc1ccc2nc3[nH]nc(N)c3cc2c1 [1(d), 6-Methoxy-1H-pyrazolo[3,4-b]quinolin-3-amine] | – | 1.5 µg/mL (≈ 7 µM)
26 µM | Nc1n[nH]c2nc3ccccc3cc12 [2(d), 1H-Pyrazolo[3,4-b]quinolin-3-amine] | – | –
21 µM | COc1ccc2cc3c(N)n[nH]c3nc2c1 [3(d), 7-Methoxy-1H-pyrazolo[3,4-b]quinolin-3-amine] | – | 4.3 µg/mL (≈ 20.1 µM)
18 µM | COc1cc2cc3c(N)n[nH]c3nc2cc1OC [4(d), 6,7-Dimethoxy-1H-pyrazolo[3,4-b]quinolin-3-amine] | – | –
– | CCOc1ccc2cc3c(N)n[nH]c3nc2c1 [5(d), 7-Ethoxy-1H-pyrazolo[3,4-b]quinolin-3-amine] | – | 17 µg/mL (≈ 74.5 µM)
– | COc1cccc2nc3[nH]nc(N)c3cc12 [6(d), 5-Methoxy-1H-pyrazolo[3,4-b]quinolin-3-amine] | – | 13 µg/mL (≈ 60.7 µM)
43 µM | COc1ccc2cc3c(N)nn(C)c3nc2c1 [Example 7, 7-Methoxy-1-methyl-1H-pyrazolo[3,4-b]quinolin-3-amine] | – | 6.4 µg/mL (≈ 28 µM)
– | CCCn1nc(N)c2cc3ccc(OC)cc3nc21 [Example 9, 7-Methoxy-1H-1-propylpyrazolo[3,4-b]quinolin-3-amine] | – | 5.3 µg/mL (≈ 20.7 µM)
– | CCn1nc(N)c2cc3ccc(OC)cc3nc21 [Example 10, 1-Ethyl-7-methoxy-1H-pyrazolo[3,4-b]quinolin-3-amine] | – | 7.8 µg/mL (≈ 32.2 µM)
– | COc1ccc2cc3c(N)nn(-c4ccccc4)c3nc2c1 [Example 11, 7-Methoxy-1-phenyl-1H-pyrazolo[3,4-b]quinolin-3-amine] | – | 19 µg/mL (≈ 65.4 µM)
57 µM | Cn1nc(N)c2cc3ccc(O)cc3nc21 [Example 12, 3-Amino-1-methyl-1H-pyrazolo[3,4-b]quinolin-7-ol] | – | –
87 µM | Nc1n[nH]c2nc3cc(O)ccc3cc12 [Example 13, 3-Amino-1H-pyrazolo[3,4-b]quinolin-7-ol] | – | 13 µg/mL (≈ 64.9 µM)
25 µM | Nc1n[nH]c2nc3ccc(O)cc3cc12 [Example 14, 3-Amino-1H-pyrazolo[3,4-b]quinolin-6-ol] | – | –
– | COc1ccc2cc3c(N)nn(CCN4CCOCC4)c3nc2c1 [Example 15, 7-Methoxy-1-[2-(4-morpholinyl)ethyl]-1H-pyrazolo[3,4-b]quinolin-3-amine] | – | 44 µg/mL (≈ 134 µM)
40 µM | CCN(CC)CCn1nc(N)c2cc3cc(OC)ccc3nc21 [Example 16, 1-[2-(Diethylamino)ethyl]-6-methoxy-1H-pyrazolo[3,4-b]quinolin-3-amine] | – | –
91 µM | COc1ccc2nc3c(cc2c1)c(N)nn3CCCN(C)C [Example 17, 1-[3-(Dimethylamino)propyl]-6-methoxy-1H-pyrazolo[3,4-b]quinolin-3-amine] | – | 78 µg/mL (≈ 261 µM)
25 µM | COc1ccc2cc3c(N)nn(CCN(C)C)c3nc2c1 [Example 18, 1-[2-(Dimethylamino)ethyl]-7-methoxy-1H-pyrazolo[3,4-b]quinolin-3-amine] | – | 12 µg/mL (≈ 42.1 µM)
71 µM | CCOC(=O)Cn1nc(N)c2cc3ccc(OC)cc3nc21 [Example 19, Ethyl 3-amino-7-methoxy-1H-pyrazolo[3,4-b]quinolin-1-acetate] | – | 12 µg/mL (≈ 40 µM)
38 µM | COc1ccc2nc3c(cc2c1)c(N)nn3CCN(C)C [Example 21, 1-[2-(Dimethylamino)ethyl]-6-methoxy-1H-pyrazolo[3,4-b]quinolin-3-amine] | – | 24 µg/mL (≈ 84.1 µM)

EC50 [2] | Compound | MIC [1] | IC50 [1]
22 µM | CCN(CC)CCn1nc(N)c2cc3ccc(OC)cc3nc21 [Example 22, 1-[2-(Diethylamino)ethyl]-7-methoxy-1H-pyrazolo[3,4-b]quinolin-3-amine] | – | 23 µg/mL (≈ 73.4 µM)
33 µM | CCN(CC)CCn1nc(N)c2cc3ccc(O)cc3nc21 [Example 23] | – | 39 µg/mL (≈ 130 µM)
– | CN(C)CCn1nc(N)c2cc3ccc(O)cc3nc21 [Example 24, 3-Amino-1-[2-(dimethylamino)ethyl]-1H-pyrazolo[3,4-b]quinolin-7-ol] | – | 13 µg/mL (≈ 47.9 µM)
116 µM | COc1ccc2nc3c(cc2c1)c(N)nn3CC(=O)N(C)C [Example 25, 3-Amino-6-methoxy-N,N-dimethyl-1H-pyrazolo[3,4-b]quinolin-1-acetamide] | – | –
– | CNCCn1nc(N)c2cc3cc(OC)ccc3nc21 [Example 27, 1-[2-(Methylamino)ethyl]-6-methoxy-1H-pyrazolo[3,4-b]quinolin-3-amine] | – | 13 µg/mL (≈ 47.9 µM)
70 µM | CCNC(=O)Cn1nc(N)c2cc3ccc(OC)cc3nc21 [Example 28, 3-Amino-7-methoxy-N-ethyl-1H-pyrazolo[3,4-b]quinolin-1-acetamide] | – | –
– | CCNCCn1nc(N)c2cc3ccc(OC)cc3nc21 [Example 29, 1-[2-(Ethylamino)ethyl]-7-methoxy-1H-pyrazolo[3,4-b]quinolin-3-amine] | – | 6.7 µg/mL (≈ 23.5 µM)
– | COc1ccc2cc3c(N)nn(CN(C)C)c3nc2c1 [Example 30, 1-[(Dimethylamino)methyl]-7-methoxy-1H-pyrazolo[3,4-b]quinolin-3-amine] | – | 2.6 µg/mL (≈ 9.58 µM)
– | COc1ccc2nc3c(cc2c1)c(Cl)nn3C [Example 31, 3-Chloro-6-methoxy-1-methyl-1H-pyrazolo[3,4-b]quinoline] | – | 18 µg/mL (≈ 72.7 µM)
– | COc1ccc2nc3c(cc2c1)c(C#N)nn3C [Example 33, 6-Methoxy-1-methyl-1H-pyrazolo[3,4-b]quinoline-3-carbonitrile] | – | 42 µg/mL (≈ 176 µM)
9 µM | COc1ccc2nc3c(cc2c1)c(C(N)=O)nn3C [Example 35, 6-Methoxy-1-methyl-1H-pyrazolo[3,4-b]quinoline-3-carboxamide] | – | 7 µg/mL (≈ 27.3 µM)
– | COc1ccc2nc3c(cc2c1)c(Br)nn3CCN(C)C [Example 36, 3-Bromo-1-[2-(dimethylamino)ethyl]-6-methoxy-1H-pyrazolo[3,4-b]quinoline] | – | 4.3 µg/mL (≈ 12.3 µM)
– | COc1ccc2cc3c(Br)nn(CCN(C)C)c3nc2c1 [Example 37, 3-Bromo-1-[2-(dimethylamino)ethyl]-7-methoxy-1H-pyrazolo[3,4-b]quinoline] | – | 0.97 µg/mL (≈ 2.78 µM)
– | COc1ccc2cc3c(C#N)nn(CCN(C)C)c3nc2c1 [Example 38, 1[2-(Dimethylamino)ethyl]-7-methoxy-1H-pyrazolo[3,4-b]quinoline-3-carbonitrile] | – | 0.82 µg/mL (≈ 2.78 µM)
– | COC(=O)c1nn(CCN(C)C)c2nc3cc(OC)ccc3cc12 [Example 39, Methyl 1-[2-(dimethylamino)ethyl]-7-methoxy-1H-pyrazolo[3,4-b]quinoline-3-carboxylate] | – | 2.3 µg/mL (≈ 7 µM)
– | COc1ccc2cc3c(Cl)nn(CCN(C)C)c3nc2c1 [Example 40, 3-Chloro-1-(2-dimethylaminoethyl)-7-methoxy-1H-pyrazolo[3,4-b]quinoline] | – | 0.67 µg/mL (≈ 2.2 µM)
– | CNCCn1nc(Br)c2cc3ccc(OC)cc3nc21 [Example 41, 3-Bromo-7-methoxy-1-(2-methylaminoethyl)-1H-pyrazolo[3,4-b]quinoline] | – | 0.72 µg/mL (≈ 2.15 µM)
– | COc1ccc2cc3c(N)nn(CC(C)N(C)C)c3nc2c1 (stereo not drawn) [Example 44a, 1-[2-(dimethylamino)-2-methylethyl]-7-methoxy-1H-pyrazolo[3,4-b]quinolin-3-amine] | – | 11 µg/mL (≈ 36.7 µM)
– | COc1ccc2cc3c(Cl)nn(CC(C)N(C)C)c3nc2c1 (stereo not drawn) [Example 45, 3-Chloro-1-[2-(dimethylamino)-2-methylethyl]-7-methoxy-1H-pyrazolo[3,4-b]quinoline] | – | 0.88 µg/mL (≈ 2.76 µM)
– | CNC(C)Cn1nc(Cl)c2cc3ccc(OC)cc3nc21 (stereo not drawn) [Example 46, 3-Chloro-1-[2-(methylamino)-2-methylethyl]-7-methoxy-1H-pyrazolo[3,4-b]quinoline] | – | 3.7 µg/mL (≈ 12.1 µM)

Reference: patent US4920128A, “Pyrazolo[3,4-b]quinolines and their use as antiviral agents” (Sterling Drug Inc., priority 1988, dated 1990)
